Paper PMC11596563, “N-Aryl Benzimidazole and Benzotriazole Derivatives and Their Hybrids as Cytotoxic Agents: Design, Synthesis and Structure–Activity Relationship Studies” (Molecules, 2024)

Key:
[1] = system: A549; assay: MTT test, cytotoxic effect; format: cell-based; conditions: Homo sapiens, 24 h treatment, 0.1 to 100 µM, concentration that causes 50% cell death
Protocol: (§1) At the first stage of biological testing, we studied the effect of the synthesized compounds on the survival of cells of both tumoral and normal origin. […] In our work, the cytotoxic profile of the synthesized molecules was assessed using the MTT test, based on the ability of a colorless tetrazolium salt (3-[4,5-dimethylthiazol-2-yl]-2,5-diphenyltetrazolium bromide, MTT) to be reduced to colored formazan in the presence of the mitochondrial enzymes of living cells. For this purpose, a number of cell lines of tumoral origin (SH-SY5Y, A549, MCF-7 and SW-480), as well as normal origin (Hek-293), were used.
(§2) For the experiments, we used tumor cell cultures SH-SY5Y, human neuroblast-like cells, A549, human lung adenocarcinoma, MCF-7, human mammary adenocarcinoma, SW-480 and human colorectal adenocarcinoma, as well as cells of normal origin obtained from human embryonic kidneys, Hek-293.
(§3) All cells were cultured in the Dulbecco Modified Eagle’s Medium (DMEM) with a high glucose content, 10% fetal bovine serum and 1% penicillin-streptomycin as an antibiotic, in a moist incubator with 5% CO2 at 37°C.
(§4) To measure cellular metabolic activity, a colorimetric analysis was performed using the MTT reagent (3-(4,5–dimethylthiazol-2-yl)-2,5-diphenyltetrazolium bromide), which is an inhibitor of viable cells [73, 74].
(§5) • Briefly, cells in the logarithmic growth phase were digested and resuspended to adjust the cell density. The cells were then seeded in 96-well plates at a density of 10,000 cells per well. After 24 h of the incubation of the cells under the standard conditions described above (for the purpose of cell adhesion), the cells were treated with the synthesized compounds at different concentrations (0.1 to 100 µM) or a vehicle alone as a control (1% DMSO) for 24 h. After the incubation time of the cells with synthesized compounds, 5 mg/mL of MTT was added to the cells and incubated for 2 h at 37 °C. Next, the supernatant was discarded; after that, the formazan crystals were dissolved in a DMSO and the absorbance of each well was measured at 570 nm using a multifunctional microplate reader, Cytation3 (Biotech Tools Inc., Winooski, USA).

[2] = system: MCF-7; assay: MTT test, cytotoxic effect; format: cell-based; conditions: Homo sapiens, MCF7, 24 h treatment, 0.1 to 100 µM, concentration that causes 50% cell death
Protocol: as §1, §2, §3, §4, §5

[3] = system: SW-480; assay: MTT test, cytotoxic effect; format: cell-based; conditions: Homo sapiens, SW480, 24 h treatment, 0.1 to 100 µM, concentration that causes 50% cell death
Protocol: as §1, §2, §3, §4, §5

[4] = MTT test, cytotoxic effect on cells of normal origin; format: cell-based, human; conditions: human, Hek-293 cells (normal origin), 24 h treatment, 0.1 to 100 µM, normal cells, concentration that causes 50% cell death
Protocol: as §1, §2, §3, §4, §5

[5] = system: SH-SY5Y; assay: cells; conditions: Homo sapiens, 24 h, read-out: IC50 of the cytotoxic effect, SH-SY5Y
Protocol: as §1, §2, §3, §4, §5

[6] = system: Hek-293; assay: MTT test, cytotoxic effect on cells of normal origin; format: cell-based, human; conditions: Hek-293
Protocol: as §1, §2, §3, §4, §5

[7] = system: Fe(II)-induced lipid peroxidation (LPO) of rat brain homogenate; assay: Fe(II)-induced lipid peroxidation, modified TBARS test; format: biochemical; conditions: Fe(II) 500 μM, rat brain homogenate 2 mg/mL; for IC50: 1 to 300 μM, read-out: IC50 of the lipid peroxidation inhibitory effect
Protocol: In our work, the antioxidant status of the compounds was determined by their ability to influence the process of Fe(II)-induced lipid peroxidation (LPO) of rat brain homogenate (2 mg/mL). The effect of the substances on LPO was studied using a modified version of the TBA test in a plate format. This test is based on the reaction of 2-thiobarbituric acid with intermediate LPO products, resulting in the formation of a colored trimethine complex, the main role in the formation of which belongs to malondialdehyde. […] This was expressed in a decrease in the level of malondialdehyde in the system by 70, 79 and 71%, respectively, tending to the values of the well-known antioxidant Trolox. Additionally, the IC50 values of the lipid peroxidation inhibitory effect were calculated for these molecules, the values of which are presented in Figure 2B.
To obtain rat brain homogenate, an animal previously anesthetized in a CO2 chamber was decapitated using a guillotine. The brain was homogenized in a buffer containing KCl (120 mM) and HEPES (20 mM), pH = 7.4 at 4 ° C and centrifuged at 1500 g to obtain a supernatant.
The intensity of the lipid peroxidation of the rat brain homogenate was evaluated using a modified TBARS test. […] In the wells of the negative control, the Fe(II) was replaced with water; in samples with a positive control, a solvent was introduced instead of the studied compounds.
At the end of incubation, a TBA reagent ([…] thiobartituric and 1% trichloroacetic acids dissolved in 0.25 N HCl) was added to each well and heated at 90 °C for 90 min.

[8] = system: A549 cells; assay: Wound-healing assay (scratch test); format: cell-based, human; conditions: 1 μM
From the text: It is also well known that migration and proliferation of cancer cells are key processes involved in the metastatic cascade of malignant neoplasms. In turn, the ability of therapeutic agents to inhibit these processes is considered a promising property of antitumor agents. In this regard, in order to assess the possible antimetastatic potential of cytotoxic diphenylamines 6b, c and d, we analyzed the effect of the substances on the migration and proliferation of tumor cells A549 in a scratch test.
Based on a preliminary series of experiments, 1 μM was chosen as the concentration used in this test, excluding the intrinsic cytotoxic effect of the substances. […] Thus, the data obtained 24 h after the damage was applied allowed us to evaluate the migration capacity of the cells, minimizing the contribution of cell proliferation.
The migration activity of A549 cells was determined by the wound-healing assay (scratch test). To do this, cells (15,000 cells per well) were seeded in a 96-well plate and cultured under the standard conditions described above. After 24 h of incubation, when the cells became 90% confluent, the medium was selected and an identical scratch wound across the center of each well was made by a 200 µL pipette tip.
To remove detached cells, the cell monolayer was washed twice with PBS; after that, the growth media and test compounds at 1 µM (or 1% DMSO as a solvent) were added to each well. A phase contrast microscope at a ×40 magnification was used to take photomicrographs after making the wound and then 24 h, 48 h and 72 h later.
The analysis of the obtained images was calculated using the open-source program ImageJ [80] and a special module: Wound_healing_size_tool.

O=[N+]([O-])c1cc(C(F)(F)F)ccc1-n1cnc2ccccc21 [3a, 1-(2-Nitro-4-(trifluoromethyl)phenyl)-1H-benzimidazole]
IC50 [1]: ≥ 100 µM | IC50 [2]: 92.4 ± 1.4 µM | IC50 [3]: ≥ 100 µM | IC50 at 24 h [4]: 77.3 ± 2.12 µM | melting point: 130 to 132 °C | IC50 [5]: 62.2 ± 0.11 µM

O=[N+]([O-])c1cc(Cl)ccc1-n1cnc2ccccc21 [3b, 1-(4-Chloro-2-nitrophenyl)-1H-benzimidazole]
IC50 [1]: ≥ 100 µM | IC50 [2]: ≥ 100 µM | IC50 [3]: ≥ 100 µM | IC50 at 24 h [4]: ≥ 100 µM | melting point: 102 to 105 °C | IC50 [5]: ≥ 100 µM

O=[N+]([O-])c1cc(C(F)(F)F)ccc1-n1nnc2ccccc21 [3c, 1-[2-Nitro-4-(trifluoromethyl)phenyl]-1H-benzotriazole]
IC50 [1]: ≥ 100 µM | IC50 [2]: ≥ 100 µM | IC50 [3]: ≥ 100 µM | IC50 at 24 h [4]: ≥ 100 µM | melting point: 133 to 136 °C | IC50 [5]: ≥ 100 µM

CCOC(=O)c1ccc(-n2nnc3ccccc32)c([N+](=O)[O-])c1 [3d, Ethyl 4-(1H-benzotriazol-1-yl)-3-nitrobenzoate]
IC50 [1]: ≥ 100 µM | IC50 [2]: ≥ 100 µM | IC50 [3]: ≥ 100 µM | IC50 at 24 h [4]: ≥ 100 µM | melting point: 115 to 119 °C | IC50 [5]: ≥ 100 µM

O=[N+]([O-])c1cc(Cl)ccc1-n1nnc2ccccc21 [3e, 1-(4-Chloro-2-nitrophenyl)-1H-benzotriazole]
IC50 [1]: ≥ 100 µM | IC50 [2]: ≥ 100 µM | IC50 [3]: ≥ 100 µM | IC50 at 24 h [4]: ≥ 100 µM | melting point: 134 to 137 °C | IC50 [5]: ≥ 100 µM

Nc1cc(C(F)(F)F)ccc1-n1cnc2ccccc21 [4a, 2-(1H-benzimidazol-1-yl)-5-(trifluoromethyl)aniline]
IC50 [1]: 67.17 ± 0.12 µM | IC50 [2]: 65.26 ± 0.07 µM | IC50 [3]: 84.03 ± 0.38 µM | IC50 at 24 h [4]: 82.89 ± 0.46 µM | melting point: 209 to 210 °C | IC50 [5]: 66.75 ± 0.41 µM

Nc1cc(Cl)ccc1-n1cnc2ccccc21 [4b, 2-(1H-benzimidazol-1-yl)-5-chloroaniline]
IC50 [1]: ≥ 100 µM | IC50 [2]: ≥ 100 µM | IC50 [3]: ≥ 100 µM | IC50 at 24 h [4]: ≥ 100 µM | melting point: 192 to 195 °C | IC50 [5]: ≥ 100 µM

Nc1cc(C(F)(F)F)ccc1-n1nnc2ccccc21 [4c, 2-(1H-benzotriazol-1-yl)-5-(trifluoromethyl)aniline]
IC50 [1]: 65.38 ± 0.17 µM | IC50 [2]: 75.2 ± 1.43 µM | IC50 [3]: ≥ 100 µM | IC50 at 24 h [4]: ≥ 100 µM | cytotoxic effect on cell line of normal origin [6]: without affecting the survival | melting point: 136 to 139 °C | IC50 [5]: 39.59 ± 0.05 µM

CCOC(=O)c1ccc(-n2nnc3ccccc32)c(N)c1 [4d, Ethyl 3-amino-4-(1H-benzotriazol-1-yl)benzoate]
IC50 [1]: ≥ 100 µM | IC50 [2]: ≥ 100 µM | IC50 [3]: ≥ 100 µM | IC50 at 24 h [4]: ≥ 100 µM | melting point: 132 to 136 °C | IC50 [5]: ≥ 100 µM

Nc1cc(Cl)ccc1-n1nnc2ccccc21 [4e, 2-(1H-benzotriazol-1-yl)-5-chloroaniline]
IC50 [1]: 91.87 ± 0.02 µM | IC50 [2]: 82.48 ± 0.32 µM | IC50 [3]: ≥ 100 µM | IC50 at 24 h [4]: 87.4 ± 1.42 µM | melting point: 154 to 156 °C | IC50 [5]: 99.1 ± 1.47 µM

O=[N+]([O-])c1cc(C(F)(F)F)ccc1Nc1cc(C(F)(F)F)ccc1-n1cnc2ccccc21 [5a, N-[2-(1H-benzimidazol-1-yl)-5-(trifluoromethyl)phenyl]-2-nitro-4-(trifluoromethyl)aniline]
IC50 [1]: ≥ 100 µM | IC50 [2]: ≥ 100 µM | IC50 [3]: ≥ 100 µM | IC50 at 24 h [4]: ≥ 100 µM | melting point: 180 to 183 °C | IC50 [5]: ≥ 100 µM

O=[N+]([O-])c1cc(C(F)(F)F)ccc1Nc1cc(C(F)(F)F)ccc1-n1nnc2ccccc21 [5b, N-[2-(1H-benzotriazol-1-yl)-5-(trifluoromethyl)phenyl]-2-nitro-4-(trifluoromethyl)aniline]
IC50 [1]: ≥ 100 µM | IC50 [2]: ≥ 100 µM | IC50 [3]: ≥ 100 µM | IC50 at 24 h [4]: ≥ 100 µM | melting point: 203 to 204 °C | IC50 [5]: ≥ 100 µM

CCOC(=O)c1ccc(Nc2cc(C(F)(F)F)ccc2-n2nnc3ccccc32)c([N+](=O)[O-])c1 [5c, Ethyl 4-[2-(1H-benzotriazol-1-yl)-5-(trifluoromethyl)anilino]-3-nitrobenzoate]
IC50 [1]: ≥ 100 µM | IC50 [2]: ≥ 100 µM | IC50 [3]: ≥ 100 µM | IC50 at 24 h [4]: ≥ 100 µM | melting point: 192 to 196 °C | IC50 [5]: ≥ 100 µM

O=[N+]([O-])c1cc(C(F)(F)F)ccc1Nc1cc(Cl)ccc1-n1nnc2ccccc21 [5d, N-[2-(1H-benzotriazol-1-yl)-5-chlorophenyl]-2-nitro-4-(trifluoromethyl)aniline]
IC50 [1]: ≥ 100 µM | IC50 [2]: ≥ 100 µM | IC50 [3]: ≥ 100 µM | IC50 at 24 h [4]: ≥ 100 µM | melting point: 178 to 181 °C | IC50 [5]: ≥ 100 µM

CCOC(=O)c1ccc(Nc2cc(C(F)(F)F)ccc2-n2nnc3ccccc32)c(N)c1 [6c, Ethyl 3-amino-4-[2-(1H-benzotriazol-1-yl)-5-(trifluoromethyl)anilino]benzoate]
IC50 [1]: 37.68 ± 0.2 µM | IC50 [2]: 77.05 ± 0.67 µM | IC50 [3]: ≥ 100 µM | IC50 at 24 h [4]: ≥ 100 µM | cytotoxic effect on cell line of normal origin [6]: did not exert a cytotoxic effect | IC50 [7]: 1.11 ± 0.13 µM | decrease in the level of malondialdehyde ([7]; compounds at 100 μM): 79% | migration capacity, decrease in the scratch width vs control ([8]; 24 h after the damage): did not find any differences | ability to suppress the migratory activity of A549 tumor cells ([8]; conclusion): failed to demonstrate the ability to suppress the migratory activity | melting point: 178 to 181 °C | IC50 [5]: 20.94 ± 0.13 µM

FC(F)(F)c1ccc(-n2nnc3ccccc32)c(-n2cnc3cc(C(F)(F)F)ccc32)c1 [7a, 1-{4-(trifluoromethyl)-2-[5-(trifluoromethyl)-1H-benzimidazol-1-yl]phenyl}-1H-benzotriazole]
IC50 [1]: ≥ 100 µM | IC50 [2]: ≥ 100 µM | IC50 [3]: ≥ 100 µM | IC50 at 24 h [4]: ≥ 100 µM | melting point: 124 to 128 °C | IC50 [5]: ≥ 100 µM

CCOC(=O)c1ccc2c(c1)ncn2-c1cc(C(F)(F)F)ccc1-n1nnc2ccccc21 [7b, Ethyl 1-[2-(1H-benzotriazol-1-yl)-5-(trifluoromethyl)phenyl]-1H-benzimidazole-5-carboxylate]
IC50 [1]: ≥ 100 µM | IC50 [2]: ≥ 100 µM | IC50 [3]: ≥ 100 µM | IC50 at 24 h [4]: ≥ 100 µM | melting point: 100 to 104 °C | IC50 [5]: ≥ 100 µM

FC(F)(F)c1ccc2c(c1)ncn2-c1cc(Cl)ccc1-n1nnc2ccccc21 [7c, 1-{4-Chloro-2-[5-(trifluoromethyl)-1H-benzimidazol-1-yl]phenyl}-1H-benzotriazole]
IC50 [1]: ≥ 100 µM | IC50 [2]: 45.12 ± 0.22 µM | IC50 [3]: ≥ 100 µM | IC50 at 24 h [4]: 36.27 ± 0.14 µM | melting point: 136 to 141 °C | IC50 [5]: ≥ 100 µM

ONc1cc(C(F)(F)F)ccc1-n1cnc2ccccc21 [8a, N-(2-(1H-benzimidazol-1-yl)-5-(trifluoromethyl)phenyl)hydroxylamine]
melting point: 153 to 156 °C

ONc1cc(C(F)(F)F)ccc1-n1nnc2ccccc21 [8b, N-(2-(1H-benzotriazol-1-yl)-5-(trifluoromethyl)phenyl)hydroxylamine]
melting point: 151 to 154 °C

Cc1c(C)c2c(c(C)c1O)CCC(C)(C(=O)O)O2 (stereo not drawn) [Trolox, reference compound]
IC50 [7]: 32.45 ± 0.24 µM
